Measurements from patent US20250361214A1, “TRIAZINE LIPIDS, LIPID SYNTHESIS, AND METHODS FOR INHIBITING CANONICAL NFKB TRANSCRIPTIONAL ACTIVITY” (University of Kentucky Research Foundation, priority 2022, published 2025).
Entries after “also recorded” stand apart in the source; their conditions may differ.

Experiments:
[1] = Size and charge determination of nanoparticles (Zetasizer Nano ZS), Example 1; assay type: physicochemical
Text: Size and Charge Determination.

[2] = Nanoparticle pKa via TNS fluorescence; assay type: physicochemical; conditions: liposomes of the cationic lipid in buffer, probe 2-(p-toluidino)-6-napthalene sulfonic acid (TNS), 1 µM final, pH 2.5 to 12, read-out: pKa
Description: Determination of Nanoparticle pKa via TNS Fluorescence. […] The solutions were mixed by pipetting and incubated at room temperature for 10 minutes, before being analysed for fluorescence intensity using a 321 nm excitation and 445 nm emission wavelengths.

[3] = system: HeLa cells; experiment: Transfection of luciferase plasmid; assay type: cell-based; conditions: TZ lipid:DOPE 1:1, compared with naked plasmid
Description: Transfection of Luciferase Plasmid and Cell Viability. HeLa cells cultured in EMEM (ATCC) supplemented with 10% fetal bovine serum were transferred to a 96 well plate, in quadruplicate, at a density of 20,000 cells per well and incubated for 24 hours at 37° C. in 5% CO2. Liposomes made with a 1:1 ratio of DOPE and TZ lipid were added to 200 ng pGL3 Luciferase Reporter Vector (Promega) at N:P ratios of 2.5, 5 and 10, and incubated at 37° C. for 10 minutes before being diluted in 100 μL of nonsupplemented EMEM and added to the cells. Following a four hour incubation at 37° C., the media was changed, and the cells were incubated for another twenty hours, at which point the cells were lysed with a cell culture lysis reagent at pH 7.8 composed of 25 mM Tris-phosphate buffer, 0.7 g L^−1 1,2-diaminocyclohexane, 10% glycerol, 1% Triton X-100, and 1% protease inhibitor cocktail (Millipore). Total protein content was determined with a bicinchoninic acid assay (G-Biosciences) and luciferase protein expression was quantified by a luciferase assay (Promega). Cell viability was assessed using a Cell Titer Blue assay kit (Promega) based on the manufacturer's instructions. In each of the three independent experiments performed, transfection was compared with cells treated with Lipofectamine 3000 (Thermo), following the manufacturer's instructions, and with DNA treated cells.

[4] = Characterization of nanoparticles (size, zeta potential, DNA encapsulation), Example 2; assay type: physicochemical; conditions: LNPs made with the cationic lipid
Description: The concentration of DNA in LNPs after dialysis was quantified using an AccuClear® Ultra High Sensitivity dsDNA Quantification Kit (Biotium #31027) and quantified on a BioTek Synergy H1 plate reader. Encapsulation efficiencies were determined by comparing the amount of DNA in the LNP solution vs. the DNA solution used to make them, after disrupting the LNPs with 0.5% Cl2E10 (Abcam #ab146563) and adjusting for volume differences (i.e.: excess volume added during dialysis and dilution volume during ethanol mixture).

[5] = system: BALB/c mice; experiment: In vivo hAAT transfection efficiency, serum ELISA and ALT; set-up: species or system mouse
Description: To assess in vivo hAAT transfection efficiency, mice were administered 200 μL nanoparticles or PBS vehicle i.p. at the doses indicated in the figure legend. Seventy-two hours after injection the mice were bled again for assessment of ALT levels and hAAT expression. hAAT levels were determined via ELISA using serum diluted 1:1 in PBS containing 0.05% casein (PBS-C; 124250; Beantown Chemical), as described previously.^38

[6] = system: BALB/c mice; experiment: Anti-hAAT antibody titers and IgG subclass ratios; assay type: in vivo, mouse
Description: To assess the presence of antibodies toward hAAT, 50 μL of hAAT (OriGene #RG202082) was plated at 2 μg/mL in carbonate buffer, pH 9.7, on a 96 well high binding plate (Greiner #82050-720) and incubated overnight at 4° C. The next day, the plates were washed with PBS containing 0.1% Tween-20 (PBS-T) and blocked for 1 hour with PBS-C at 37° C. After blocking, serum samples were plated at dilutions ranging from 1:100 to 1:1,000,000 and incubated at 37° C. for 2 hours. Secondary antibody (goat anti-mouse IgG HRP; Invitrogen #16066) diluted 1:2000 was applied for 30 min at 37° C., followed by a 30 min. incubation with tetramethylbenzidine (Rockland). Absorbance at 450 nm was recorded using a BioTek Synergy H1 microplate reader. Reciprocal endpoint titers were determined by plotting A450 values versus known dilutions, calculating the slope of that line, and dividing the slope by two times the average of the blank (no serum) wells.
Anti-hAAT IgG subclass ratios were assessed as described above, using a single 1:100 sample dilution and the following detection antibodies: goat anti-mouse IgG1-HRP (Abcam ab98693) at 1:10,000, IgG2a-HRP (Abcam ab98698) at 1:5000, IgG2b-HRP (Abcam ab98703) at 1:10,000 and IgG3 (Jackson 115-035-209) at 1:5000. Subclass ratios were calculated by dividing the absorbance of each subclass by that of IgG1 for each individual mouse.

[7] = system: canonical NFKB; experiment: THP-1-Blue NFKB reporter (SEAP) assay; assay type: cell-based, human
[8] = system: J774 murine macrophages; experiment: CD80 expression on macrophages treated with lipid; assay type: cell-based; conditions: 16 hours
Text: Increased expression of CD80 after TZ3 treatment aligns with data observed for DOTAP,^109 and supports the hypothesis that cationic lipids activate the non-canonical NFKB pathway leading to enhanced antigen presentation and co-stimulatory molecule expression.

[9] = system: C57BL/6J mice; experiment: In vivo toxicity of cationic lipid nanoparticles (ALT, IL-6, SCr, mortality)
[10] = 20 mM lipid, i.p., versus baseline

CCCCCCCCCCCCN(CCCCCCCCCCCC)c1nc(NCCCN)nc(NCCCN)n1 [Lipid 3]
PDI ([1]; nanoparticles of pure lipid (Table 1)): 0.41 ± 0.02
Size ([1]; nanoparticles of pure lipid, 1 mM, 25° C. (Table 1)): 130 ± 2 nm
Charge ([1]; zeta potential, nanoparticles of pure lipid (Table 1)): 52 ± 3 mV
pKa [2]: 7.37
plasmid transfection (luciferase) [3]: better efficacy than the lipids with C18 tails
encapsulation of DNA (general) [4]: 60-70%
hAAT levels at 4 weeks ([5]; LP transfection, 4 weeks after treatment): persisted at 4 weeks after treatment
average hAAT levels in serum ([5]; LPs (50% cationic lipid, 50% DOPE), 10,000 ng hAAT plasmid DNA i.p., 72 hours): 9.5 ng/mL
increase in anti-hAAT titers versus the two control lipids ([6]; 25 μg hAAT protein concurrent with 1 mM lipid, day 14): 1000 fold
increase in antibody titer toward a model antigen ([6]; absence of additional adjuvants (FIG. 60)): greater than 3 orders of magnitude
ratios of IgG2a, 2b and 3 to IgG1 ([6]; hAAT protein delivered with lipids): more balanced IgG2a/IgG1 ratio than DOTAP and DMPC
antibody response relative to DOTAP ([6]; hAAT protein delivery): two orders of magnitude greater than DOTAP
RET (anti-hAAT) ([6]; lipid used to deliver the hAAT protein): > 100,000
anti-hAAT IgG titers ([6]; transgene delivery, 10 μg hAAT DNA, day 14, versus untreated mice): significantly higher anti-hAAT titers than untreated mice
Th1/Th2 response (ratios of IgG2a, 2b, and 3 over IgG1) ([6]; transgenic hAAT delivery with LPs): balanced Th1/Th2 response
IC50 ([7]; Homo sapiens, THP-1-Blue cells stimulated with TNFα, 24 h lipid treatment, read-out: IC50, canonical NFKB inhibition): 4 µM
IC80 ([7]; Homo sapiens, canonical NFKB inhibition): 10 µM
canonical NFKB inhibition ([7]; THP-1-Blue cells stimulated with TNFα, listed as TZ3): dose dependent, but not affected by duration of exposure; also recorded: dose dependent inhibition of the canonical NFKB pathway
CD80 expression ([8]; MFI relative to untreated cells, listed as TZ3): does-dependent increase in mean fluorescence intensity (MFI) of CD80; also recorded: dose-dependent increase in expression of the co-stimulatory molecule, CD80
cell viability (ZombieDye live/dead stain) ([8]; across lipid concentrations): cells are viable across lipid concentrations
interleukin 6 (IL-6) [9, 10]: trended upward
serum alanine aminotransferase (ALT) [9, 10]: trended upward
in vivo toxicity (overall) ([9]; 100 μL cationic lipid nanoparticles i.p., listed as TZ3): comparable toxicity to DOTAP; also recorded: does not induce significant in vivo toxicity
